Data on 17 compounds can be found in US9796709B2, “5-hydroxy-4-(trifluoromethyl)pyrazolopyridine derivative” (Daiichi Sankyo Company, Limited, priority 2013, dated 2017).

pEC50: −log10 of the molar value.

Assay [1] addresses T1, LCAT (Homo sapiens, UniProt P04180).
T1 construct: The obtained fraction was dialyzed against phosphate-buffered saline (pH 7.4) and used as an enzyme source and an acceptor for LCAT; from tissue; host or cells: HDL3 fraction (1.125 < specific gravity < 1.210 g/mL) of plasma from a healthy person
T1 sequence (P04180 25-440): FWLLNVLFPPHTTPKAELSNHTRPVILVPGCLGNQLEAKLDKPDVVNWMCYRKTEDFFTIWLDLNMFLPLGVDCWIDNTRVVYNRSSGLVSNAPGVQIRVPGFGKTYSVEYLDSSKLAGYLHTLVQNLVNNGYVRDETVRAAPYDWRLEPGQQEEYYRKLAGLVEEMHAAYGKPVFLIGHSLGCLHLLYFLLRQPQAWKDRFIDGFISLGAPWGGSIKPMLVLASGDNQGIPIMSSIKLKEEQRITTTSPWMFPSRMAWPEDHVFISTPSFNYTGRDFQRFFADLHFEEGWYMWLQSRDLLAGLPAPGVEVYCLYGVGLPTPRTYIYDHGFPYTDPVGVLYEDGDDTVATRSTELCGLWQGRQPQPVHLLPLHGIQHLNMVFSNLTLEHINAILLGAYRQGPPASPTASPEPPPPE
The assay is described as follows: LCAT activity measurement (in vitro), [14C]cholesterol esterification with HDL3 fraction. It counts as biochemical. The settings on record: HDL3 fraction from plasma of a healthy person as enzyme source and acceptor; 37° C., approximately 16 hours; relative to sample without test drug; read-out: EC50 of LCAT activation. The method, then:
A fraction composed of HDL3 (1.125 <specific gravity <1.210 g/mL) was obtained from the plasma of a healthy person by density gradient centrifugation. The obtained fraction was dialyzed against phosphate-buffered saline (pH 7.4) and used as an enzyme source and an acceptor for LCAT. Each test drug was prepared by dissolution in dimethyl sulfoxide. [^14C]Cholesterol containing DTNB (Ellman's reagent, final concentration: 0.5 mM), mercaptoethanol (final concentration: 12.5 mM), and 0.6% bovine serum albumin was added to phosphate-buffered saline (pH 7.4) containing 1 mg/mL HDL3, and the test drug was further added thereto at varying concentrations to adjust the whole amount to 80 μL. This mixture was incubated at 37° C. for approximately 16 hours. Then, a mixed solution of hexane and isopropanol (mixing ratio=3:2) was added thereto to stop the reaction. After stirring, the hexane layer was collected, and this layer was evaporated to dryness. A chloroform solution (concentration: 10 mg/mL) was added thereto, and the mixture was spotted onto a thin-layer silica gel plate and developed using a mixed solution of hexane, diethyl ether, and ethyl acetate (mixing ratio=85:15:2). The radioactivity of a portion corresponding to cholesterol oleate was measured using an imaging analyzer BAS-2500 (manufactured by Fujifilm Corp.). A sample non-supplemented with the test drug was similarly treated and assayed. The EC50 value of LCAT activation was calculated according to the expression given below relative to LCAT activity in the sample non-supplemented with the test drug.
[formula] • wherein X represents the logarithm of the concentration of the test drug; • Y represents the responsiveness (LCAT activity) of the test drug; • Top represents the maximum value (maximum plateau); • Bottom represents the minimum value (minimum plateau); and • EC50 represents the 50% effective concentration.

The test system of assay [2] is cynomolgus monkey. Description: Drug efficacy test in cynomolgus monkeys (plasma HDL cholesterol). It counts as in vivo. To be noted: Macaca fascicularis, oral, single dose of 10 mg/kg, from AUC before administration and 24 hours after administration, read-out: Rate of increase in HDL level after administration of single dose. On the procedure: Each test drug was dissolved in a propylene glycol (Sigma-Aldrich Corp.)-Tween 80 (Sigma-Aldrich Corp.) mixed solution [4/1 (v/v)] or a 0.5% (w/v) methylcellulose aqueous solution, and the solution was orally administered to a cynomolgus monkey for 1 or 7 days. At day 1 or 7 of the administration period, blood was collected before administration and after administration, and plasma was obtained. The content of cholesterol in the plasma was measured using a commercially available assay kit (Cholesterol-E Wako, Wako Pure Chemical Industries, Ltd.). The lipoprotein profile was analyzed by HPLC (column: LipopropakXL, manufactured by Tosoh Corp.). The contents of HDL cholesterol and non-HDL cholesterol were calculated according to the following calculation expression: Content of HDL cholesterol=Content of cholesterol in the plasma×(Peak area of HDL cholesterol/Total sum of peaks) Content of non-HDL cholesterol=Content of cholesterol in the plasma×(Peak area of non-HDL cholesterol/Total sum of peaks)

In general, pEC50 refers to the negative decadic logarithm of the EC50, by convention in mol/L. `O=C1Nc2[nH]nc(C3CCN(c4ccc(C(F)(F)F)cn4)CC3)c2[C@@H](C(F)(F)F)[C@H]1O` (single isomer, unassigned) [Example 3, (+)-cis-5-Hydroxy-4-(trifluoromethyl)-3-{1-[5-(trifluoromethyl)pyridin-2-yl]piperidin-4-yl}-1,4,5,7-tetrahydro-6H-pyrazolo[3,4-b]pyridin-6-one]: the pEC50 in assay [1] is 7.89. In assay [2], the change in vivo at 10 mg/kg came out at 658%.

Regarding `O=C1Nc2[nH]nc(C3CCN(c4cnc(C(F)(F)F)cn4)CC3)c2[C@@H](C(F)(F)F)[C@H]1O` (single isomer, unassigned) [Example 18, (+)-cis-5-Hydroxy-4-(trifluoromethyl)-3-{1-[5-(trifluoromethyl)pyrazin-2-yl]piperidin-4-yl}-1,4,5,7-tetrahydro-6H-pyrazolo[3,4-b]pyridin-6-one], in assay [1], the pEC50 is 8.05. The change in vivo at 10 mg/kg in assay [2] worked out at 644%.

Regarding `N#Cc1cnc(N2CCC(c3n[nH]c4c3[C@@H](C(F)(F)F)[C@@H](O)C(=O)N4)CC2)cc1C(F)(F)F` (single isomer, unassigned) [Example 20, (+)-6-{4-[cis-5-Hydroxy-6-oxo-4-(trifluoromethyl)-4,5,6,7-tetrahydro-1H-pyrazolo[3,4-b]pyridin-3-yl]piperidin-1-yl}-4-(trifluoromethyl)pyridine-3-carbonitrile], the negative logarithm of the EC50 (pEC50) in assay [1] is 7.29. In addition, in assay [2], the change in vivo at 10 mg/kg was 454%.

For the compound `O=C1Nc2[nH]nc(C3CCN(c4cnc(C(F)(F)F)nc4)CC3)c2[C@@H](C(F)(F)F)[C@H]1O` (single isomer, unassigned) [Example 21, (+)-cis-5-Hydroxy-4-(trifluoromethyl)-3-{1-[2-(trifluoromethyl)pyrimidin-5-yl]piperidin-4-yl}-1,4,5,7-tetrahydro-6H-pyrazolo[3,4-b]pyridin-6-one], the pEC50 in assay [1] is 7.74. The change in vivo at 10 mg/kg in assay [2] was determined as 483%.

For `O=C1Nc2[nH]nc(C3CCN(c4ccnc(C(F)(F)F)n4)CC3)c2[C@@H](C(F)(F)F)[C@H]1O` (single isomer, unassigned) [Example 25, (+)-cis-5-Hydroxy-4-(trifluoromethyl)-3-{1-[2-(trifluoromethyl)pyrimidin-4-yl]piperidin-4-yl}-1,4,5,7-tetrahydro-6H-pyrazolo[3,4-b]pyridin-6-one], the pEC50 in assay [1] was 7.00.

Turning to `O=C1Nc2[nH]nc(C3CCN(c4nnc(C(F)(F)F)s4)CC3)c2[C@@H](C(F)(F)F)[C@H]1O` (single isomer, unassigned) [Example 26, (+)-cis-5-Hydroxy-4-(trifluoromethyl)-3-{1-[5-(trifluoromethyl)-1,3,4-thiadiazol-2-yl]piperidin-4-yl}-1,4,5,7-tetrahydro-6H-pyrazolo[3,4-b]pyridin-6-one], the pEC50 in assay [1] is 7.19.

Turning to `Cc1cc(N2CCC(c3n[nH]c4c3[C@@H](C(F)(F)F)[C@@H](O)C(=O)N4)CC2)cnc1C#N` (single isomer, unassigned) [Example 27, (+)-5-{4-[cis-5-Hydroxy-6-oxo-4-(trifluoromethyl)-4,5,6,7-tetrahydro-1H-pyrazolo[3,4-b]pyridin-3-yl]piperidin-1-yl}-3-methylpyridine-2-carbonitrile], the pEC50 in assay [1] is 7.43.

In the case of `N#Cc1cnc(N2CCC(c3n[nH]c4c3[C@@H](C(F)(F)F)[C@@H](O)C(=O)N4)CC2)cn1` (single isomer, unassigned) [Example 28, (+)-5-{4-[cis-5-Hydroxy-6-oxo-4-(trifluoromethyl)-4,5,6,7-tetrahydro-1H-pyrazolo[3,4-b]pyridin-3-yl]piperidin-1-yl}pyrazine-2-carbonitrile], the pEC50 in assay [1] is 6.80.

For the compound `O=C1Nc2[nH]nc(C3CCN(c4ccc(-c5ccccc5)nn4)CC3)c2[C@@H](C(F)(F)F)[C@H]1O` (single isomer, unassigned) [Example 29, cis-5-hydroxy-3-[1-(6-phenylpyridazin-3-yl)piperidin-4-yl]-4-(trifluoromethyl)-1,4,5,7-tetrahydro-6H-pyrazolo[3,4-b]pyridin-6-one], the pEC50 in assay [1] is 7.96.

As for `N#Cc1cncc(N2CCC(c3n[nH]c4c3[C@@H](C(F)(F)F)[C@@H](O)C(=O)N4)CC2)c1` (single isomer, unassigned) [Example 31, (+)-5-{4-[cis-5-Hydroxy-6-oxo-4-(trifluoromethyl)-4,5,6,7-tetrahydro-1H-pyrazolo[3,4-b]pyridin-3-yl]piperidin-1-yl}pyridine-3-carbonitrile], in assay [1], the pEC50 is 7.47.

For `O=C(OCc1ccccc1)c1cc(N2CCC(c3n[nH]c4c3[C@@H](C(F)(F)F)[C@@H](O)C(=O)N4)CC2)ncc1C(F)(F)F` (single isomer, unassigned) [Example 32, Benzyl (+)-2-{4-[cis-5-hydroxy-6-oxo-4-(trifluoromethyl)-4,5,6,7-tetrahydro-1H-pyrazolo[3,4-b]pyridin-3-yl]piperidin-1-yl}-5-(trifluoromethyl)pyridine-4-carboxylate], in assay [1], the negative logarithm of the EC50 (pEC50) is 8.15.

`CC(C)Oc1ccc(N2CCC(c3n[nH]c4c3[C@@H](C(F)(F)F)[C@@H](O)C(=O)N4)CC2)nc1` (single isomer, unassigned) [Example 36, (+)-cis-5-Hydroxy-3-[1-(5-isopropoxypyridin-2-yl)piperidin-4-yl]-4-(trifluoromethyl)-1,4,5,7-tetrahydro-6H-pyrazolo[3,4-b]pyridin-6-one]: in assay [1], the pEC50 is 7.39.

Turning to `O=C1Nc2[nH]nc(C3CCN(c4cncc(C(F)(F)F)c4)CC3)c2[C@@H](C(F)(F)F)[C@H]1O` (single isomer, unassigned) [Example 38, (+)-cis-5-Hydroxy-4-(trifluoromethyl)-3-{1-[5-(trifluoromethyl)pyridin-3-yl]piperidin-4-yl}-1,4,5,7-tetrahydro-6H-pyrazolo[3,4-b]pyridin-6-one], the pEC50 in assay [1] is 7.62.

For `CC(C)Oc1ccc(N2CCC(c3n[nH]c4c3[C@@H](C(F)(F)F)[C@@H](O)C(=O)N4)CC2)cn1` (single isomer, unassigned) [Example 39, cis-5-hydroxy-3-[1-(6-isopropoxypyridin-3-yl)piperidin-4-yl]-4-(trifluoromethyl)-1,4,5,7-tetrahydro-6H-pyrazolo[3,4-b]pyridin-6-one], the negative logarithm of the EC50 (pEC50) in assay [1] was 7.04.

Turning to `O=C1Nc2[nH]nc(C3CCN(c4cnc(C5CC5)nc4)CC3)c2[C@@H](C(F)(F)F)[C@H]1O` (single isomer, unassigned) [Example 40, cis-3-[1-(2-cyclopropylpyrimidin-5-yl)piperidin-4-yl]-5-hydroxy-4-(trifluoromethyl)-1,4,5,7-tetrahydro-6H-pyrazolo[3,4-b]pyridin-6-one], the pEC50 in assay [1] is 7.15.

Take `CC(C)Oc1ccc(N2CCC(c3n[nH]c4c3[C@@H](C(F)(F)F)[C@@H](O)C(=O)N4)CC2)nn1` (single isomer, unassigned) [Example 41, (+)-cis-5-Hydroxy-3-[1-(6-isopropoxypyridazin-3-yl)piperidin-4-yl]-4-(trifluoromethyl)-1,4,5,7-tetrahydro-6H-pyrazolo[3,4-b]pyridin-6-one]: the negative logarithm of the EC50 (pEC50) in assay [1] is 7.46.

For `O=C1Nc2[nH]nc(C3CCN(c4ccc(C(F)(F)F)cn4)CC3)c2C(O)(C(F)(F)F)C1O` (stereo not drawn) [Example 4, 4,5-Dihydroxy-4-(trifluoromethyl)-3-{1-[5-(trifluoromethyl)pyridin-2-yl]piperidin-4-yl}-1,4,5,7-tetrahydro-6H-pyrazolo[3,4-b]pyridin-6-one], in assay [1], the pEC50 was 7.66.
